Data: patent publication US20040024024A1, “Aromatic sulfone hydroxamates and their use as protease inhibitors” (priority 2001, published 2004)
pIC50, pKi: −log10 of the molar value.

Legend:
Type in all cases: biochemical
[1] = molecular target: T1, Human recombinant MMP-13 (Homo sapiens, UniProt P45452); test: In vitro MMP inhibition, Ki determination (fluorogenic substrate II)
T1 construct: made in house; host or cells: baculovirus / insect cells
Method: (§1) Several hydroxamates and salts thereof were analyzed in in vitro assays to determine their ability to inhibit the MMP cleavage of peptide substrates. Inhibition (Ki) and IC50 constants were calculated from the assayed hydroxamate-MMP interactions.
(§2) Human recombinant MMP-1, MMP-2, MMP-9, MMP-13, and MMP-14 were used in this assay. All enzymes were prepared in Assignee's laboratories following usual laboratory procedures. Protocols for the preparation and use of these enzymes are available in the scientific literature. See, e.g., Enzyme Nomenclature (Academic Press, San Diego, Calif., 1992) (and the citations therein). See also, Frije et al., J. Biol. Chem., 26(24), 16766-73 (1994).
The expressed proenzyme was first purified over a heparin agarose column, and then over a chelating zinc chloride column. The proenzyme was then activated by APMA for use in the assay. Further details on baculovirus expression systems may be found in, for example, Luckow et al., J. Virol., 67, 4566-79 (1993). See also, O'Reilly et al, Baculovirus Expression Vectors: A Laboratory Manual (W. H. Freeman and Co., New York, N.Y., 1992). See also, King et al., The Baculovirus Expression System: A Laboratory Guide (Chapman & Hall, London, England, 1992).
(§3) All MMPs were activated using 4-aminophenylmercuric acetate (“APMA”, Sigma Chemical, St. Louis, Mo.) or trypsin. MMP-9 also was activated using human recombinant MMP-3 (purified in Assignee's laboratory following standard cloning and purification techniques).
(§4) Two fluorogenic, methoxycoumarin-containing polypeptide substrates were used in the MMP inhibition assays:
(§5) MCA-ArgProLeuGlyLeuDpaAlaArgGluArgNH2 (II)
(§6) Here, “Dpa” is 3-(2,4-dinitrophenyl)-L-2,3-diaminopropionyl group, and “MCA” is 7-methoxycoumarin-4-yl acetyl. Substrate (I) was purchased from Baychem (Redwood City, Calif.), and substrate II was prepared Assignee's laboratory. Substrate I was used in the IC50 determination assays, while substrate II was used in the Ki determination assays. In the absence of MMP inhibitory activity, either substrate is cleaved at the Gly-Leu peptide bond. This cleavage separates the highly fluorogenic peptide from the 2,4-dinitrophenyl quencher, thus resulting in increase of fluorescent intensity.
(§7) The stock solutions of the assayed hydroxamates (or salts thereof) were prepared in 1% dimethyl sulfoxide (DMSO). These stock solutions were diluted in Buffer A (100 mM Tris-HCl, 100 mM NaCl, 10 mM CaCl2, 0.05% polyoxyethylene 23 lauryl ether, pH 7.5) to obtain solutions with different hydroxamate concentrations, i.e., assay solutions with different concentrations of the assayed MMP inhibitory compound. The experiment controls contained the same amount of Buffer A/DMSO as the assayed sample, but contained no hydroxamate (or salt thereof).
(§8) The assays from which the Ki determinations were made were performed as follows. The assayed hydroxamate samples were incubated in separate wells of untreated white polystyrene plates (Nunc Nalgene International, Rochester, N.Y.), and analyzed on a Tecan SpectraFlour Plus plate reader. The excitation wavelength was 330 nm, and the emission wavelength—420 nm. All samples (assayed hydroxamates and controls) were incubated in separate plate wells at room temperature for 1 hr in the presence of 4 μM of MMP substrate (II). In the absence of MMP inhibitory activity, substrate II was cleaved at the Gly-Leu bond resulting in an increase of relative fluorescence. Inhibition was observed as a reduced rate of this increase in relative fluorescence. The various hydroxamates were analyzed using a single low enzyme concentration with a single substrate concentration fixed at or below the Km. This protocol is a modification of method by Knight et al., FEBS Lett., 296(3), 263-266 (1992). Apparent inhibitory constants were determined by non-linear regression of reaction velocity as a function of inhibitor and enzyme concentration using Morrison's equation, as described by Kuzmic, Anal. Biochem. 286, 45-50 (2000). […]

[2] = molecular target: T2, Human recombinant MMP-14 (Homo sapiens, UniProt P50281); test: as above
T2 construct: The catalytic domain enzyme was expressed in E. coli inclusion bodies, solubilized in urea; made in house
Method: as §1, §2
The MMP-14 full length cDNA was provided by Dr. Gregory Goldberg of Washington University (St. Louis, Mo.). The catalytic domain enzyme was expressed in E. coli inclusion bodies, solubilized in urea, purified on a preparative […] reverse phase HPLC column, and then refolded in the presence of zinc acetate and purified for use.
as §3, §4, §5, §6, §7
as §8, with “(2000). Modifications were made in the non-linear regression method to allow a common control reaction rate and effective enzyme concentration to be shared between all dose-response relationships on a given assay plate.” for “(2000).”

[3] = molecular target: T2, Human recombinant MMP-14; test: In vitro MMP inhibition, IC50 determination (fluorogenic substrate I)
Outline: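 Catalytic-domain MMP-14, expressed in E. coli and refolded, activated with APMA or trypsin; compounds incubated at room temperature with 4 μM fluorogenic substrate I (MCA-PLGL-Dpa-AR-NH2) in Tris/NaCl/CaCl2 buffer, pH 7.5. Fluorescence at ex 328/em 415 nm; IC50 from loss of fluorescence versus inhibitor concentration.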

Compound	pKi ([1]; value in parenthesis)	pKi ([2]; value in parenthesis)	pIC50 ([3]; value outside parenthesis)	pKi ([1]; value in parentheses)	pKi ([2]; value in parentheses)	pIC50 ([3]; value outside parentheses)
O=C(NO)C1(S(=O)(=O)c2ccc(OCCOc3cccc(-c4ccccc4)c3)cc2)CCOCC1 [Example 157]	8.40	< 5.00	< 5.00	–	–	–
O=C(NO)C1(S(=O)(=O)c2ccc(OCCCc3cccc(-c4ccccc4F)c3)cc2)CCOCC1 [Example 163]	7.94	< 5.00	< 5.00	–	–	–
COCCN1CCC(C(=O)NO)(S(=O)(=O)c2ccc(OCCCc3nc(-c4ccc(CC(C)C)cc4)no3)cc2)CC1 [Example 175]	8.70	< 5.00	< 5.00	–	–	–
COCCN1CCC(C(=O)NO)(S(=O)(=O)c2ccc(OCCCc3nnc(-c4ccccc4C(F)(F)F)o3)cc2)CC1 [Example 178]	8.77	< 5.00	< 5.00	–	–	–
O=C(CCCOc1ccc(S(=O)(=O)C2(C(=O)NO)CCOCC2)cc1)Nc1cccc(OC(F)(F)F)c1 [Example 181]	9.57	5.32	5.09	–	–	–
CC(C)c1cccc(NC(=O)CCCOc2ccc(S(=O)(=O)C3(C(=O)NO)CCOCC3)cc2)c1 [Example 182]	9.67	5.23	< 5.00	–	–	–
COCCN1CCC(C(=O)NO)(S(=O)(=O)c2ccc(OCCCc3nc(-c4ccc(OC(F)(F)F)cc4)no3)cc2)CC1 [Example 190]	9.22	< 5.00	< 5.00	–	–	–
O=C(NO)C1(S(=O)(=O)c2ccc(OCCCc3ccnc(-c4ccccc4)c3)cc2)CCOCC1 [Example 197]	9.43	< 5.00	< 5.00	–	–	–
O=C(CCCc1ccc(S(=O)(=O)C2(C(=O)NO)CCOCC2)cc1)c1cccc(-c2ccccc2)c1 [Example 219]	9.45	5.10	< 5.00	–	–	–
O=C(CCCOc1ccc(S(=O)(=O)C2(C(=O)NO)CCOCC2)cc1)Nc1ccc(OC(F)(F)F)cc1 [Example 228]	9.49	5.20	< 5.00	–	–	–
Cc1cc(OC(F)(F)F)ccc1NC(=O)CCCOc1ccc(S(=O)(=O)C2(C(=O)NO)CCOCC2)cc1 [Example 229]	9.57	5.10	< 5.00	–	–	–
COc1ccc(/C(C#N)=C/CCCOc2ccc(S(=O)(=O)C3(C(=O)NO)CCN(C4CC4)CC3)cc2)cc1 [Example 233]	9.86	< 5.00	< 5.00	–	–	–
CN(C(=O)CCCOc1ccc(S(=O)(=O)C2(C(=O)NO)CCOCC2)cc1)c1ccc(OC(F)(F)F)cc1 [Example 249]	8.83	< 5.00	< 5.00	–	–	–
O=C(CCCOc1ccc(S(=O)(=O)C2(C(=O)NO)CCOCC2)cc1)Nc1ccc(OC(F)(F)F)cc1 [Example 250]	9.90	5.77	5.12	–	–	–
Cc1cc(NC(=O)CCCOc2ccc(S(=O)(=O)C3(C(=O)NO)CCOCC3)cc2)ccc1OC(C)C [Example 290]	9.26	< 5.00	< 5.00	–	–	–
O=C(NO)C1(S(=O)(=O)c2ccc(OCCCc3cncc(-c4ccc(F)cc4)c3)cc2)CCOCC1 [Example 523]	–	–	–	9.63	< 5.00	< 5.00
O=C(NO)C1(S(=O)(=O)c2ccc(OCCCc3cncc(-c4ccccc4)c3)cc2)CCOCC1 [Example 524]	–	–	–	9.61	< 5.00	< 5.00
O=C(NO)C1(S(=O)(=O)c2ccc(OCCCc3cc(-c4ccc(F)cc4F)cs3)cc2)CCOCC1 [Example 587]	–	–	–	8.85	5.38	< 5.00
CCN1CCC(C(=O)NO)(S(=O)(=O)c2ccc(OCCCSc3nc4ccccc4s3)cc2)CC1 [Example 591]	–	–	–	9.72	5.06	< 5.00
O=C(NO)C1(S(=O)(=O)c2ccc(OCCCc3cccc(-c4cccs4)c3)cc2)CCOCC1 [Example 595]	–	–	–	8.14	< 5.00	< 5.00
O=C(Cc1csc2ccccc12)NCCOc1ccc(S(=O)(=O)C2(C(=O)NO)CCOCC2)cc1 [Example 596]	–	–	–	9.40	5.94	5.60
O=C(NO)C1(S(=O)(=O)c2ccc(OCCCc3cc(-c4ccc(OC(F)(F)F)cc4)cs3)cc2)CCOCC1 [Example 608]	–	–	–	8.03	< 5.00	< 5.00
N#Cc1ccc(-c2cccc(CCCOc3ccc(S(=O)(=O)C4(C(=O)NO)CCOCC4)cc3)c2)cc1 [Example 624]	–	–	–	9.05	5.12	< 5.00
O=C(NO)C1(S(=O)(=O)c2ccc(OCCCc3cccc(-c4ccc([N+](=O)[O-])cc4)c3)cc2)CCOCC1 [Example 626]	–	–	–	8.12	< 5.00	< 5.00
O=C(NO)C1(S(=O)(=O)c2ccc(OCCCc3cccc(-c4ccc5c(c4)OCO5)c3)cc2)CCOCC1 [Example 628]	–	–	–	7.70	< 5.00	< 5.00
O=C(NO)C1(S(=O)(=O)c2ccc(OCCCc3cccc(-c4ccc(F)cc4F)c3)cc2)CCOCC1 [Example 630]	–	–	–	8.22	< 5.00	< 5.00
O=C(NO)C1(S(=O)(=O)c2ccc(OCCCc3cccc(-c4ccsc4)c3)cc2)CCOCC1 [Example 632]	–	–	–	8.18	< 5.00	< 5.00
O=C(NO)C1(S(=O)(=O)c2ccc(OCCCc3cccc(-c4ccoc4)c3)cc2)CCOCC1 [Example 637]	–	–	–	8.33	< 5.00	< 5.00
